Values after ≈ are worked out from the molar mass of the structure shown.
Key:
A549 cells [1] = assay: Cellular uptake of TPD-Rhein in the presence of transporter inhibitors; type: cell-based, human; conditions: A549 cells preincubated 1 h with inhibitor 189 μM, then TPD-Rhein 18.9 μM 1 h; vs control without inhibitor
Experimental: The A549 cells were seeded in 6-well culture plates (5 × 10^5 cells/well). On the second day, cells were incubated with Rhein or TPD-Rhein solution at increasing concentrations (4.7, 9.3, 18.9 and 37.4 μM, respectively, equivalent to Rhein) at 37 °C for 1 h. Cells were rinsed three times with ice-cold PBS and collected for the determination of intracellular concentration. To explore the cell delivery mechanism of TPD, the cells were precubated with indicated inhibitors for 1 h and then incubated with TPD-Rhein (18.9 μM) for another 1 h. For energy depletion, cells were exposed to Rhein or TPD-Rhein (18.9 μM) for 0.5 h at 37 °C, 4 °C, or in the presence of NaN3 (1 mg/mL) for 1 h. Lysine and L-arginine were substrates of basic amino acid transporters (Zhou et al., [2016]). Pyrilamine was used to indicate pyrilamine-sensitive transporter (Okura et al., [2008]). Spermine and Spermidine were inhibitors of the alkaline polyamine transporter (Grancara et al., [2014]). […] Choline was a substrate of choline transport system (Taguchi et al., [2014]). TPD was performed as a competitive cationic inhibitor. The inhibitor concentrations were 10-fold (189 μM) of the concentration of TPD-Rhein. In the end, cells were rinsed three times with ice-cold PBS and the intracellular concentrations of Rhein or TPD-Rhein were measured by LC-MS/MS. Cellular uptake was expressed as the amount (nmol/L) of Rhein or TPD-Rhein per 1 mg of total cellular protein. The total protein concentration of cell lysates was measured using the BCA protein assay kit (Pierce, Appleton, WI).

L929 cells = assay: Cell uptake in L929 cells; type: cell-based, mouse
From the text: (§1) Male Wistar rats (body weight: 200 ± 20 g) were supplied by the Experimental Animal Center of Zhengzhou University (Zhengzhou, China). Rats were maintained in a germ-free environment and allowed free access to food and water for at least one week before experiments. All animal experiments were approved by the Institutional Animal Care and Ethics Committee of Zhengzhou University, according to the requirements of the National Act on the use of experimental animals (PR China). A549 cells (human pulmonary alveolar epithelial cells), L929 cells (mouse fibroblast cells), and Hela cells (human carcinoma cervical cells) were obtained from ATCC (Manassas, VA). The cells were cultured in DMEM with high glucose (GIBCO, Big Cabin, OK) supplemented with 20% fetal bovine serum and 1% penicillin/streptomycin. Routinely, cells were maintained at 37 °C in a humidified atmosphere containing 5% CO2, and the cell medium was changed every other day. The A549 cells were seeded in 6-well culture plates (5 × 10^5 cells/well). […] In the end, cells were rinsed three times with ice-cold PBS and the intracellular concentrations of Rhein or TPD-Rhein were measured by LC-MS/MS. Cellular uptake was expressed as the amount (nmol/L) of Rhein or TPD-Rhein per 1 mg of total cellular protein. The total protein concentration of cell lysates was measured using the BCA protein assay kit (Pierce, Appleton, WI).

A549 cells [2] = assay: Cell uptake study in A549 cells (LC-MS/MS); type: cell-based, human; conditions: 18.9 μM, NaN3 1 mg/mL
Experimental: The A549 cells were seeded in 6-well culture plates (5 × 10^5 cells/well). On the second day, cells were incubated with Rhein or TPD-Rhein solution at increasing concentrations (4.7, 9.3, 18.9 and 37.4 μM, respectively, equivalent to Rhein) at 37 °C for 1 h. Cells were rinsed three times with ice-cold PBS and collected for the determination of intracellular concentration. To explore the cell delivery mechanism of TPD, the cells were precubated with indicated inhibitors for 1 h and then incubated with TPD-Rhein (18.9 μM) for another 1 h. For energy depletion, cells were exposed to Rhein or TPD-Rhein (18.9 μM) for 0.5 h at 37 °C, 4 °C, or in the presence of NaN3 (1 mg/mL) for 1 h. Lysine and L-arginine were substrates of basic amino acid transporters (Zhou et al., [2016]). Pyrilamine was used to indicate pyrilamine-sensitive transporter (Okura et al., [2008]). Spermine and Spermidine were inhibitors of the alkaline polyamine transporter (Grancara et al., [2014]). […] In the end, cells were rinsed three times with ice-cold PBS and the intracellular concentrations of Rhein or TPD-Rhein were measured by LC-MS/MS. Cellular uptake was expressed as the amount (nmol/L) of Rhein or TPD-Rhein per 1 mg of total cellular protein. The total protein concentration of cell lysates was measured using the BCA protein assay kit (Pierce, Appleton, WI).

[3] = Aqueous solubility in PBS; type: physicochemical; conditions: 25 °C, thermodynamic from solid
Experimental: The solubilities of Rhein and TPD-Rhein were determined in PBS with varying pH values (pH = 2 and 7.4) by equilibrating an excess of solid compound in 5 mL of buffer at 25 °C for 12 h. The samples were filtered through a 0.22 µm Millipore filter, diluted in methanol, and analyzed by LC-MS/MS. The chemical and enzymatic stabilities of TPD-Rhein were assessed in PBS with varying pH values (pH = 2, 4.5, 6.8, and 7.4), freshly prepared rat plasma and lung homogenates (diluted with 0.9% physiological saline) from rats at 37 °C, respectively. At predetermined time intervals, samples were immediately diluted by an equal amount of methanol to precipitate protein, vortexed for 5 min and centrifuged at 13,000 rpm for 10 min. The supernatant was then subjected to LC-MS/MS. Stability studies were performed in triplicate.

[4] = Plasma pharmacokinetics after i.v. injection; type: in vivo; conditions: rat, iv, rats, 10 mg/kg Rhein equivalent
Experimental: Rhein or TPD-Rhein was injected through the tail vein of rats. For each preparation and sampling time point, five rats were treated with a single dose of Rhein at the dose of 10 mg/kg or TPD-Rhein at 17.2 mg/kg (dose equivalent to 10 mg/kg Rhein), respectively. The rats were scarified at predetermined time intervals (0.083, 0.25, 0.5, 1, 2, 4, 8, 16, and 24 h) after administration. The whole blood was quickly collected into heparinized tubes and centrifuged at 5000 rpm for 5 min to obtain plasma. Then, the tissues (heart, liver, spleen, lung, kidney, and brain) were rinsed with saline, weighed and homogenized with cold physiological saline (twice the weight of tissues). For Rhein treated rats, the content of Rhein in the homogenates was measured by LC-MS/MS. For TPD-Rhein treated rats, the samples were injected to LC-MS/MS to determine the concentration of free Rhein released and TPD-Rhein, respectively. The content of TPD-Rhein in tested tissues at different time point was the sum of TPD-Rhein and free Rhein released. The biodistribution of the two drugs in each organ was normalized by the weight of the selected tissue.
The pharmacokinetic data were calculated using the DAS software version 2.0 (Mathematical Pharmacology Professional Committee of China, Shanghai, China). The relative uptake efficiency (Re) and concentration efficiency (Ce) were used to evaluate the lung-targeting properties of TPD-Rhein. The values of Re and Ce were calculated as follows: Relung=(AUC0-t, lung)TPD-Rhein/(AUC0-t, lung)Rhein Celung=(Cmax, lung)TPD-Rhein/(Cmax, lung)Rhein

Hela cells = assay: Cell uptake in Hela cells; type: cell-based, human
From the text: as §1

[5] = test system: OVA-induced asthma model in rats; assay: Therapeutic effect on ovalbumin-induced asthma model; type: in vivo, rat; conditions: OVA-challenged asthmatic rats, i.v. Rhein 4.5 mg/kg/day or TPD-Rhein 7.7 mg/kg/day
Experimental: Wistar rats were used to evaluate the efficacy of Rhein and TPD-Rhein on asthma. Forty healthy male rats (200 ± 20 g) were randomly divided into four groups (n = 10). Asthma model in rats was established according to a previously reported method with slight modifications (Lu et al., [2015]). Briefly, on day 0, rats were systemically sensitized with an intraperitoneal injection with 1 mL of 10% ovalbumin (OVA). Two weeks after the sensitization, the rats were exposed to aerosolized OVA for 30 min of cycling three times per week for 14 weeks. The concentration of OVA was increased from 2% for 8 weeks to 4% for remaining 6 weeks to maintain the asthma condition. From weeks 3–16, the OVA-sensitized rats in the treatment groups were given normal saline, Rhein, or TPD-Rhein intravenously before OVA inhalation, at doses of 4.5 mg/kg/day for Rhein and 7.7 mg/kg/day for TPD-Rhein (dose equivalent to free drug treatment), respectively. The rats in the normal group received with the same volume of normal saline instead. One day after the last ultrasonic atomization, all rats were anesthetized by 3% sodium pentobarbital solution at a dose of 45 mg/kg. Then, 0.5 mL of intracardiac blood of each rat was collected. The histamine level and Interleukin-5 (IL-5) level in the supernatant serum were determined using Rat HIS ELISA kit (R&D Company, Minneapolis, MN) and Rat IL-5 ELISA Kit (R&D Company, Minneapolis, MN) according to the manufacturer’s instructions, respectively. Lungs were removed from sacrificed rats and lavaged to determine the IL-5 level using the corresponding kit. In the end, lungs were fixed in 4% buffered formalin, paraffin embedded and sectioned for hematoxylin and eosin staining (H&E) for conventional histological analysis.

[6] = In vitro cytotoxicity, MTT assay; type: cell-based; conditions: human, A549 cells, under tested concentrations, read-out: A549 cells remaining viable
Experimental: To evaluate the in vitro cytotoxicity of Rhein and TPD-Rhein, MTT (3-(4, 5-dimethylthiazol-2-yl)-2, 5-diphenyltetrazolium bromide) assays were performed using A549 cell lines. Briefly, A549 cells were seeded in 96-well culture plates at a density of 1 × 10^4 cells/well and incubated at 37 °C for two days. On the day of administration, the cells were treated with different concentrations of Rhein solution, TPD-Rhein solution or TPD solution (dispersed in serum-free culture medium) for 4 h. An aliquot of 20 μL MTT solution (5 mg/mL) were added into each well and incubated at 37 °C for another 4 h. After that, all medium was removed and cells were rinsed with phosphate-buffered saline (PBS), and the formed dark blue formazan crystals in each well were dissolved in 150 μL DMSO. The absorbance of each individual well was read on a microplate reader (Thermo Scientific, Waltham, MA, Varioskan Flash) at 570 nm wavelength. Cells not exposed to samples were used as control (=100% viability).

## N=C(N)NCCC[C@H](N)C(=O)O [L-arginine]
A549 cells [1]
  effect of inhibitor on cellular uptake of TPD-Rhein: no obvious impact

## C[N+](C)(C)C[C@H](O)CC(=O)[O-] [L-carnitine]
A549 cells [1]
  effect of inhibitor on cellular uptake of TPD-Rhein: no obvious impact

## NCCCC[C@H](N)C(=O)O [L-lysine]
A549 cells [1]
  effect of inhibitor on cellular uptake of TPD-Rhein: no obvious impact

## O=C(O)c1cc(O)c2c(c1)C(=O)c1cccc(O)c1C2=O [Rhein, 4,5-dihydroxyanthraquinone-2-carboxylic acid]
L929 cells
  uptake compared with A549 cells: slight decrease
A549 cells [2]
  intracellular amount at 4 °C or in the presence of NaN3 versus 37 °C: no substantial difference
[3]; pH 2, aqueous buffer, PBS pH 2.0, 25 °C
  solubility at 12 h: 3.56 ± 0.2 µg/mL (≈ 12.5 µM)
[3]; pH 7.4, aqueous buffer, PBS pH 7.4, 25 °C
  solubility at 12 h: 513 ± 32 µg/mL (≈ 1800 µM)
[4]
  AUC(0-t): 206 ± 10.6 µM·h
  Cmax: 308 ± 3.89 µM
[4]; read-out: CLZ (converted)
  clearance: 2.83 mL/min/kg
[4]; read-out: VZ
  Vd: 0.47 ± 0.02 L/kg
Hela cells
  uptake compared with A549 cells: slight decrease
[5]; vs asthmatic model group
  bronchoalveolar lavage fluid IL-5 level: no significant differences
  plasma (serum) IL-5 level: no significant differences
[5]; vs asthmatic model rats
  lung histology (H&E): no significant improved anti-asthma efficacy

## CN(C)CCCN(C)Cc1ccc(O)cc1 [TPD, N,N,N’-trimethyl-N’-(4-hydroxyl-benzyl)-1,3-propanediamine]
A549 cells [1]
  effect of inhibitor on cellular uptake of TPD-Rhein: abolish
[6]
  viability at 4 h: > 90%

## CC[N+](CC)(CC)CC.[Cl-] [Tetraethylammonium (TEA) chloride]
A549 cells [1]
  effect of inhibitor on cellular uptake of TPD-Rhein: significantly reduced

## C[N+](C)(C)CCO [choline]
A549 cells [1]
  effect of inhibitor on cellular uptake of TPD-Rhein: no obvious impact

## CN(C)CCCN1c2ccccc2CCc2ccccc21 [imipramine]
A549 cells [1]
  effect of inhibitor on cellular uptake of TPD-Rhein: significantly reduced

## COc1ccc(CN(CCN(C)C)c2ccccn2)cc1 [pyrilamine]
A549 cells [1]
  effect of inhibitor on cellular uptake of TPD-Rhein: no obvious impact

## NCCCCNCCCN [spermidine]
A549 cells [1]
  effect of inhibitor on cellular uptake of TPD-Rhein: no obvious impact

## NCCCNCCCCNCCCN [spermine]
A549 cells [1]
  effect of inhibitor on cellular uptake of TPD-Rhein: no obvious impact

From publication PMC6058525, “A novel phenolic propanediamine moiety-based lung-targeting therapy for asthma” (Drug Delivery, 2018)
